Assays:
[1] = system: Plasmin; test: Serine protease inhibition, E/IC50: plasmin; assay type: biochemical
Description: (§1) The inhibition exerted by the following two compounds on serine-containing proteases other than human Teucocytic elastase was determined in this Example:
(§2) More specifically, the activity of a) pig pancreatic elastase, b) trypsin, c) thrombin and d) plasmin was determined in the presence of these inhibitors and of the synthetic substrates: a) succinyltrialanine p-nitroanilide, b) N-benzoyl-DL-arginine p-nitroanilide, c) N-p-tosyl-gly-pro-arg p-nitroanilide and d) N-p-tosyl-gly-pro-lys p-nitroanilide, respectively.
(§3) Each enzyme was first incubated for 15 min with 0-50 μg/ml of compound B or P mentioned above, which had been dissolved in acetone as in the test with human leucocytic elastase, the final concentration of this solvent in the reaction mixture being 1%.
(§4) The appropriate substrate was then added to each enzyme, and its hydrolysis was monitored with a Philips 8700 spectrophotometer at 410 nm by measuring the amount of p-nitroaniline appearing in the medium.
(§5) The results were used to plot the inhibition of the enzymatic activity against the amount of inhibitor present in the medium. […]
(§6) To be able to compare the inhibitory power of the compounds tested on the various enzymes used, the E/IC50 value was calculated, where E is the concentration of the enzyme in the reaction mixture (also expressed in mole/l ). […]

[2] = target: Pig pancreatic elastase (Sus scrofa, UniProt P00772); test: Serine protease inhibition, E/IC50: pig pancreatic elastase; assay type: biochemical; conditions: pig pancreatic elastase vs thrombin
Sequence of Pig pancreatic elastase (P00772 27-266): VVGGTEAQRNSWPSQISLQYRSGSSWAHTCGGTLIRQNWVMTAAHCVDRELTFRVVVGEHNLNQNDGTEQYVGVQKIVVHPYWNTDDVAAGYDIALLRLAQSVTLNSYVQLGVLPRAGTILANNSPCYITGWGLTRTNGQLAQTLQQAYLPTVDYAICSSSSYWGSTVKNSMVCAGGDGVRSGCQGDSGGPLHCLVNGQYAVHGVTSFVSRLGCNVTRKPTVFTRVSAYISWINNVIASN
Description: as §1, §2, §3, §4, §5, §6

[3] = target: T1, Human leucocytic elastase (Homo sapiens, UniProt P08246); test: Serine protease inhibition, E/IC50: human leucocytic elastase; assay type: biochemical; conditions: human leucocytic elastase vs thrombin
T1 sequence (P08246 30-247 limits assumed): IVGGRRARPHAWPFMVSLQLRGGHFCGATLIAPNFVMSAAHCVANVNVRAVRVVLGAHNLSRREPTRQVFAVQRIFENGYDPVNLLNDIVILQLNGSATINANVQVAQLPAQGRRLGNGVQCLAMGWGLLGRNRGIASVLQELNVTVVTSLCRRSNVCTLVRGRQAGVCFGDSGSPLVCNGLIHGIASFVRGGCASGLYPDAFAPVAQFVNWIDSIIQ
Description: (§7) The inhibition test was carried out by using succinyltrialanine p-nitroanilide as a synthetic substrate. Human leucocytic elastase, used at a concentration of 1 μg/ml, was first pre-incubated for 15 min with the compounds of the invention, used at a concentration of 0.5, 5, 10, 25 and 50 μg/ml. These compounds were added in the form of a solution in acetone, the final acetone concentration of the reaction mixture being 1%.
The degree of hydrolysis of the substrate was determined by measuring the amount of p-nitroaniline released, using a Philips PO 8700 spectrophotometer at 410 nm. […]
The inhibition exerted by the following two compounds on serine-containing proteases other than human Teucocytic elastase was determined in this Example: […]
The appropriate substrate was then added to each enzyme, and its hydrolysis was monitored with a Philips 8700 spectrophotometer at 410 nm by measuring the amount of p-nitroaniline appearing in the medium. […]
(§8) Inhibition of human leucocytic elastase was also determined, as in Example 12.
as §6

[4] = target: T2, Trypsin (Bos taurus, UniProt P00760); test: Serine protease inhibition, E/IC50: trypsin; assay type: biochemical
T2 sequence (P00760 24-246): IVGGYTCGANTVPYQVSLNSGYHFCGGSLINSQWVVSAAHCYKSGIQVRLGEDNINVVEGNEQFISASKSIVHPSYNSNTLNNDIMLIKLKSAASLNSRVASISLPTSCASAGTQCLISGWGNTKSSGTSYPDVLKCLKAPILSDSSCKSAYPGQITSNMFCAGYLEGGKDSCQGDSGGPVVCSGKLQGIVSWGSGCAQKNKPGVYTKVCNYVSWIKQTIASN
Description: as §1, §2, §3, §4
The results were used to plot the inhibition of the enzymatic activity against the amount of inhibitor present in the medium. These curves were then used to find the median inhibitory concentration (IC50) in mole/l, which inhibits 50% of the enzymatic activity.
To be able to compare the inhibitory power of the compounds tested on the various enzymes used, the E/IC50 value was calculated, where E is the concentration of the enzyme in the reaction mixture (also expressed in mole/l ). The higher the value of this quotient, the stronger the inhibitory activity, and therefore the lower the number of moles of the inhibitor that are needed to obtain a 50% inhibition for the same number of moles of the enzyme.

[5] = target: T1, Human leucocytic elastase; test: Protective action on insoluble elastin against human leucocytic elastase (second and third series, elastin pre-incubated with compound); assay type: biochemical; conditions: 50-100 μg/ml, elastin first incubated with compound 30 min or 10 min
Description: Tritiated insoluble elastin extracted from the nuchal ligament was then added in a concentration of 75 μg/ml, corresponding to a radioactivity level of 2.2×10^6 counts per minute (cpm) per ml. 2) Protective action […] 3) Third series […] The mixture was then centrifuged, the supernatant was discarded, and the residue was suspended in the buffer that contained human leucocytic elastase. The degree of the hydrolysis of elastin was calculated in all three cases after incubation with elastase for 7 h at 37° C. by determining the radioactivity in the solubilized peptides derived from the elastin.

[6] = target: T1, Human leucocytic elastase; test: Direct inhibition of elastin-cleaving activity of human leucocytic elastase (first series, elastase pre-incubated with compound); assay type: biochemical; conditions: pH 8.4, 7 h at 37° C.
Description: 1) Inhibitory action […] Tritiated insoluble elastin extracted from the nuchal ligament was then added in a concentration of 75 μg/ml, corresponding to a radioactivity level of 2.2×10^6 counts per minute (cpm) per ml. The degree of the hydrolysis of elastin was calculated in all three cases after incubation with elastase for 7 h at 37° C. by determining the radioactivity in the solubilized peptides derived from the elastin.

[7] = target: T1, Human leucocytic elastase; test: Protective action on the elastin in rabbit skin sections treated with human leucocytic elastase; conditions: 1.5 h at 37° C.
Description: The segments of rabbit skin were incubated for 1.5 h at 37° C. In the control experiment, they were incubated only with the buffer (100-mM tris-HCl, 0.1% of Brij 35, pH 8) under the same conditions. Thin sections of the skin specimens were then fixed for 2 min in 95% ethanol and stained for 3 h by a modified Verhoeff method, described by Godeau et al. [cf. Pathol. Biol., 32 (1984) pp. 215-6]. After a suitable contrast treatment, the surface density of the elastic fibres was determined by automatic image analysis, carried out directly on the microscope slides.

[8] = target: T1, Human leucocytic elastase; test: Inhibition of human leucocytic elastase (succinyltrialanine p-nitroanilide substrate); assay type: biochemical; conditions: elastase 1 μg/ml, pre-incubated 15 min; 1% acetone; 410 nm
Description: as §7
The degree of hydrolysis of the substrate was determined by measuring the amount of p-nitroaniline released, using a Philips PO 8700 spectrophotometer at 410 nm. The 50% inhibitory concentration (IC50) in mole/liter was then determined by a graphical method, using the inhibition values obtained with the different concentrations of the substrate and the inhibitor. […] It can thus be seen that the inhibitory action of these compounds increases with the number of carbon atoms in the R^2 group on going from C9 to C17.

[9] = system: serine proteases; test: Comparison of inhibitory power over all serine proteases used (E/IC50); assay type: biochemical; conditions: all enzymes of Table 2
Description: as §1, §2, §3, §4, §5, §8, §6

Compound: CCCC(=O)N1C(=O)c2ccccc2S1(=O)=O [2-butyryl-benzisothiazolinone-1-dioxide]
- effect on plasmin (in words) ([1]; 0-50 μg/ml): no effect on plasmin
- E/IC50 ([1]; E = enzyme concentration (mole/l), N-p-tosyl-gly-pro-lys p-nitroanilide substrate): inactive
- inhibition relative to thrombin (in words) [2]: more strongly than it inhibits thrombin
- inhibition relative to thrombin (in words) [3]: more strongly than it inhibits thrombin
- effect on trypsin (in words) ([4]; 0-50 μg/ml): activates trypsin
- E/IC50 ([4]; E = enzyme concentration (mole/l), N-benzoyl-DL-arginine p-nitroanilide substrate): activator

Compound: CCCCCCCCCCCC(=O)N1C(=O)c2ccccc2S1(=O)=O [Example 1, 2-lauroylbenzisothiazolinone-1-dioxide]
- maximum inhibition (protection of insoluble elastic fibres) [5]: 50%
- inhibition at 45 µg/mL ([6]; 45 μg/ml, elastase 1 μg/ml, tritiated insoluble elastin 75 μg/ml): 80%
- IC50 ([6]; elastase 1 μg/ml incubated 10 min with compound): 75 µM
- volume fraction V occupied by the cutaneous elastic fibres ([7]; elastase 15 μg/ml + compound 350 μg/ml, V without elastase 6.25±0.5%, with elastase alone 4.1±0.8%): 6.00±1%
- inhibition at 350 µg/mL ([7]; pH 8, elastase 15 μg/ml + compound 350 μg/ml, read-out: protection from the action of elastase): 96%
- IC50 [8]: 11 µM

Compound: CCCCCCCCCCCCCC(=O)N1C(=O)c2ccccc2S1(=O)=O [Example 2, 2-myristoylbenzisothiazolinone-1-dioxide]
- IC50 [8]: 9.2 µM

Compound: CCCCCCCCCCCCCCCC(=O)N1C(=O)c2ccccc2S1(=O)=O [Example 3, 2-palmitoyl-benzisothiazolinone-1-dioxide]
- inhibitory power relative to butyrylbenzisothiazolinone-1-dioxide (in words) [9]: better inhibitor than butyrylbenzisothiazolinone-1-dioxide, irrespective of the enzyme used
- inhibition relative to thrombin [2]: 20-40 times
- inhibition relative to thrombin [3]: 20-40 times
- inhibition relative to thrombin ([4]; trypsin vs thrombin): 20-40 times
- IC50 [8]: 2.1 µM

Compound: CCCCCCCCCCCCCCCCCC(=O)N1C(=O)c2ccccc2S1(=O)=O [Example 4, 2-stearoylbenzisothiazolinone-1-dioxide]
- IC50 [8]: 4.7 µM

Compound: CCCCCCCCCC(=O)N1C(=O)c2ccccc2S1(=O)=O [Example 5]
- IC50 [8]: 86 µM

Compound: C=CCCCCCCCCC(=O)N1C(=O)c2ccccc2S1(=O)=O [Example 6, 2-undecenoylbenzisothiazolinone-1-dioxide]
- IC50 [8]: 75 µM

Compound: COc1ccc(C=CC(=O)N2C(=O)c3ccccc3S2(=O)=O)cc1OC [Example 7, 2-[(3,4)-dimethoxycinnamoyl]-benzisothiazolinone-1-dioxide]
- IC50 [8]: 5 µM

Compound: O=C(C=Cc1ccccc1)N1C(=O)c2ccccc2S1(=O)=O [Example 8]
- IC50 [8]: 90 µM

Compound: O=C(CCc1ccccc1)N1C(=O)c2ccccc2S1(=O)=O [Example 9]
- IC50 [8]: 48 µM

Compound: COc1ccc(CCCC(=O)N2C(=O)c3ccccc3S2(=O)=O)cc1 [Example 10]
- IC50 [8]: 36 µM
